Assay results reported in paper PMC7449215, “Caspofungin Weight-Based Dosing Supported by a Population Pharmacokinetic Model in Critically Ill Patients” (Antimicrobial Agents and Chemotherapy, 2020).

How the values were obtained:
[1] = two-compartment population pharmacokinetic model (Pmetrics NPAG) in critically ill ICU patients; type: in vivo, human; conditions: 20 ICU patients
Procedure: This study included data from a prospective study in 20 adult critically ill patients admitted to an ICU with suspected invasive candidiasis and treated with caspofungin ([6]). For more details about the study population, see our previous publication ([6]).
All patients received a loading dose of 70 mg on the first day of treatment. The subsequent dose was 50 mg for patients weighing ≤80 kg, 70 mg for patients weighing >80 kg, and 35 mg and 50 mg, respectively, for patients with moderate hepatic impairment (Child-Pugh score of 7 to 9) ([8]). Caspofungin was administered as a 1-h infusion.
As the steady state for caspofungin is reached on the second day after the loading dose, blood sampling was performed on day 3 (range, 2 to 4) ([22]). […] The rationale for this target is described in detail in our previous publication ([6]). The sampling was performed before the administration and 1, 2, 3, 4, 6, 8, 12, and 24 h after the start of the caspofungin infusion. Caspofungin plasma concentrations were measured using a validated liquid chromatography-tandem mass spectrometry assay ([30]).
The pharmacokinetic modeling, probability of target attainment, and visual predictive checks were performed using the nonparametric adaptive grid program (NPAG) in Pmetrics (version 1.5.2) for R (version 3.6.1) (Laboratory of Applied Pharmacokinetics and Bioinformatics, Los Angeles, CA) ([16]).
The covariate selection was performed using the PMstep command of Pmetrics. Each covariate was tested in a linear regression analysis on pharmacokinetic parameters to see if there was a significant effect on AIC value (P < 0.05). […] The covariates, tested with a forward addition method, were weight, age, gender, concomitant administration of prednisolone/hydrocortisone, dialysis, aspartate aminotransferase (AST), alanine aminotransferase (ALT), gamma-glutamyl transpeptidase (GGT), bilirubin, albumin, C-reactive protein, leukocyte count, and simplified acute physiology score (SAPS 3).
The models were analyzed and compared using individual and population observed versus predicted goodness-of-fit plots, AIC, BIC, and −2 log likelihood. The prediction error was evaluated using bias (mean weighted prediction error) and imprecision (bias-adjusted mean weighted squared prediction error) for both the individual and population models. During the population modeling assay, error (standard deviation) and environmental noise were considered. For this, we used error polynomials in the following equation: standard deviation = C0 + C1 × observed concentration. The value 0.05 was used for C0 and 0.08 for C1. Gamma multiplicative and lambda additive error models were tested to estimate residual error ([12], [31]).

[2] = critically ill patients; cited from earlier work
Procedure: It has been shown in healthy adults that with increasing weight, both V and clearance (CL) increase ([17]). […] Other models have also included weight as a covariate and obtained similar results ([10], [18]). Furthermore, Nguyen et al. described that caspofungin exposure was influenced by albumin concentration and body weight ([19]). During our model development, albumin was also tested ...

[3] = cited from earlier work
From the text: This study has some limitations. […] As caspofungin is highly protein bound (∼97%), the extent of protein binding can change in ICU patients, and the measurement of unbound fractions may be useful; however, drug assessment can be difficult, as small absolute errors translate into large relative errors in highly protein-bound drugs ([26], [27]). Second, the PK/PD target for AUC is not well established in clinical trials, and the currently used targets are based on murine model ...

[4] = doses of up to 200 mg daily for an extended period of time; cited from earlier work

For `CC[C@H](C)C[C@H](C)CCCCCCCCC(=O)N[C@H]1C[C@@H](O)[C@@H](NCCN)NC(=O)[C@@H]2[C@@H](O)CCN2C(=O)[C@H]([C@H](O)CCN)NC(=O)[C@H]([C@H](O)[C@@H](O)c2ccc(O)cc2)NC(=O)[C@@H]2C[C@@H](O)CN2C(=O)[C@H]([C@@H](C)O)NC1=O` [caspofungin], the “Ke, elimination rate constant, mean” value ([1]; 1-h infusion, plasma LC-MS/MS, final two-compartment model) was 0.09 h⁻¹, the “V0, volume of distribution, median” value ([1]; final model, V = V0 · weight/78) was 7.20 L/kg and the “Ke, elimination rate constant, median” value ([1]; final two-compartment model) was 0.08 h⁻¹. For the same molecule, the “kcp, rate constant central to peripheral compartment, mean” value ([1]; final two-compartment model) was 0.44 h⁻¹, the “kcp, rate constant central to peripheral compartment, median” value ([1]; final two-compartment model) was 0.28 h⁻¹ and the “kpc, rate constant peripheral to central compartment, mean” value ([1]; final two-compartment model) was 0.46 h⁻¹. The “kpc, rate constant peripheral to central compartment, median” value ([1]; final two-compartment model) was 0.34 h⁻¹, the CL [2] was 0.54 L/h and the V [2] was 7.03 L. The protein bound [3] was about 97% and the tolerability [4] was “good tolerability was observed, with no described dose-limiting toxicity”.
